Assay results taken from a melting point compilation (Tetko et al.; mined from patent text by program, amines drawn as free bases though some values may be those of a salt).

In the case of `Cc1noc(NS(=O)(=O)c2cccc([N+](=O)[O-])c2)c1Br`, the melting point is reported as 151 to 153 °C. `CS(=O)(=O)Nc1c(CCCCCCC(=O)O)ccc2ccccc12` gave a melting point of 122 to 127 °C. `CCOC(=O)CN1CC(=O)N(C)c2ccc(N)cc2C1=O` gave a melting point of 118 to 119 °C. In the case of `COc1cccc(Cc2cc(OC)ccc2O)c1`, the melting point is reported as 116 to 118 °C. `CCCCCCCCCCCCCCCc1ccc(C=O)c(O)c1` gave a melting point of 50 to 54 °C. Compound `Nc1cc(Cl)nc(S(=O)(=O)Cc2cccc(Br)c2)n1` has a melting point of 191 to 192 °C. For `C#CCn1c(=O)[nH]c(=O)n(-c2cc(N3C(=O)C4=C(CCCC4)C3=O)c(F)cc2Cl)c1=O`, the melting point was 127 to 135 °C. For `COC(=O)C=C(C)NCc1ccccc1`, the melting point was 36 to 37.5 °C. `CC(=O)c1ccc(CNC(=O)C(F)(F)F)s1` showed a melting point of 83 to 84 °C. Compound `COc1ncccc1-c1ccc(Cl)c(OC2SCC(O)C(O)C2O)c1` (stereo not given) has a melting point of 119 °C. `CCn1c(=O)oc(=O)c2ccccc21` gave a melting point of 110 to 112 °C. Compound `CCOC=C1C(=O)N(c2cccc(Cl)c2)c2ccccc21` has a melting point of 132 to 134 °C. Work on `COc1ccc(Nc2nc(Nc3cc4c(cc3OC)CCN(CC(=O)N(C)C)CC4)ncc2Cl)c(S(=O)(=O)C(C)C)c1` yielded a melting point of 68 to 79 °C. `CCN(c1nc(C)cc(-c2ccccc2C(F)(F)F)n1)c1c(Br)cc(N(C)C)cc1OC` gave a melting point of 157 to 158 °C. For `CC(C)(C)OC(=O)Oc1ccc(C(C(=O)OC(c2ccccc2)c2ccccc2)N2CC(N)C2=O)cc1` (stereo not given), the melting point was 120 to 122 °C. For `COc1ccc(C(=O)c2ccc(Cl)nc2)cc1OC`, the melting point was 158 to 159 °C. In the case of `CC(C)(C)c1cc(C=Cc2ccccc2NC(=O)N(Cc2ccccc2)Cc2ccccc2)cc(C(C)(C)C)c1O`, the melting point is reported as 175 to 178 °C. Work on `CCc1ccc(-n2c(-c3ccccn3)nc(SC)c(C#N)c2=O)cc1` yielded a melting point of 172 to 175 °C. For `COc1cc(OC)n2nc(S(=O)(=O)Nc3c(Cl)cccc3Cl)nc2c1`, the melting point was 252 to 253 °C. With `Cc1ccc2c(c1)c1cc(C(=O)c3ccccc3C(=O)O)ccc1n2CCC#N` the melting point was 190 °C. Compound `Cc1c(C)c2c(c(C)c1NC(=O)c1ccc(Cl)cc1)C(c1ccc(C(C)C)cc1)C1(CCN(C)CC1)O2` (stereo not given) has a melting point of 293 to 295 °C. `CCc1cc2c(Sc3ccccn3)ncnc2s1` showed a melting point of 76.5 to 79 °C. `CN1c2ccccc2N(C(=O)c2ccccc2)C(=O)c2cccnc21` showed a melting point of 181 to 183 °C. Work on `COCCOc1ccc(CCCOC(=O)NS(=O)(=O)NCCOC(C)C)c(Oc2ncc(Cl)cc2Cl)c1` yielded a melting point of 87.5 to 88.4 °C. Work on `ClC1=Nc2cccc(Br)c2C2=NCCN12` yielded a melting point of 220 to 223 °C. Compound `COC(=O)CCc1cc2nc(Cl)ccc2n1S(=O)(=O)c1cccc(OC(F)(F)F)c1` has a melting point of 102 °C. In the case of `COC(=O)c1ccccc1CS(=O)(=O)NC(=S)Nc1nc(OC)cc(OC)n1`, the melting point is reported as 167 to 168 °C. For `CC1(C)[C@H]2[C@H](O)OC(=O)[C@H]21`, the melting point was 116 °C. With `Cc1ccc2c(c1)c(N1CCN(C(=O)c3cccs3)CC1)c(C#N)c(=O)n2C` the melting point was 214 °C. `O=C1NC(=O)C(Cc2ccc(OCC3CN(c4ccccn4)CCO3)cc2)S1` (stereo not given) showed a melting point of 139 to 142 °C. `CP(=O)(NCC(=O)OCc1ccccc1)C1CC(c2ccccc2)=NO1` (stereo not given) showed a melting point of 132 to 135 °C. Work on `CCOC(=O)C1=C(C)Nc2ccnc(OC(C)C)c2C1c1cccc2nonc12` (stereo not given) yielded a melting point of 134 to 136 °C. `O=C(Cn1c(=O)n(S(=O)(=O)c2ccc(Cl)cc2)c(=O)c2ccc(Cl)cc21)Nc1ccc(C(=O)O)cc1` showed a melting point of 219 to 221 °C. In the case of `CC1CC(=O)c2cc(O)cnc2C1` (stereo not given), the melting point is reported as 210 to 212 °C. With `COc1cc(COc2nn(Cc3ccccc3)cc2C(C)=O)ccc1OCc1nc(-c2ccco2)oc1C` the melting point was 144 to 145 °C. `CCCCOc1ccc(/C=C/c2cc(OC)cc(OC)c2)cc1` showed a melting point of 54 to 56 °C. For `COc1ccc(-c2cc(NC(=O)CCCCN3CCCN(C(C)=O)CC3)n[nH]2)cc1`, the melting point was 132 to 133 °C. For `CC1COC(Nc2ccccc2)(c2ccnc(C(=O)c3ccc(Cl)cc3)c2)O1` (stereo not given), the melting point was 125 to 126 °C. Compound `CC(C)(C)OC(=O)NCC(=O)Nc1ccc(O)cc1` has a melting point of 152 to 154 °C. Compound `CC(c1ccc(Br)cc1)N(O)C(N)=O` (stereo not given) has a melting point of 138 to 140 °C. With `Nc1ncn(C[C@@H](CO)OCP(=O)(O)O)c(=O)n1` the melting point was 175 to 178 °C. With `CCOC(=O)CNC(=O)C[C@H]1O[C@@H](c2ccccc2)c2cc(Cl)ccc2N(C(C)C)C1=O` (relative stereo) the melting point was 188 to 190 °C. Compound `CN(C)c1nc(-c2ccccc2O)cs1` has a melting point of 201 to 204 °C. For `Cc1ccc2c(c1)[C@@H]1CN(C)CC[C@@H]1CC2=O` (relative stereo), the melting point was > 250 °C. `Cc1ccc(-c2cc(CN3C(=O)c4ccccc4C3=O)c(=O)n(CC(C)C)n2)cc1` showed a melting point of 222 to 224 °C. In the case of `CC(NC1=Nc2ccccc2C(=O)N(C)C1)c1ccccc1` (stereo not given), the melting point is reported as 150 to 151 °C. Work on `COc1ccc(-c2nnc(N3CCC(O)CC3)nc2-c2ccc(OC)cc2)cc1` yielded a melting point of 105 to 108 °C. For `NS(=O)(=O)c1ccccc1C1=CCCC1`, the melting point was 112 to 113 °C. In the case of `O=C(COc1ccc2ccccc2c1)NC(Cc1ccccc1)C(=O)CSCc1ccco1` (stereo not given), the melting point is reported as 115 to 118 °C. `O=Cc1ccc(-c2ccc(-c3ccc(C=O)o3)cc2)cc1` showed a melting point of 173 to 174 °C. For `COc1cccc(S(=O)(=O)N2C3CCC2CN(CC(=O)Nc2ccccc2C)C3)c1`, the melting point was 163 to 165 °C. With `Cn1cc(C(=O)c2ccncc2)cc1C(=O)c1ccc(Cl)cc1` the melting point was 174 to 175 °C. Work on `C#CCN1CCN(C2Cc3ccc(C)cc3Sc3ccc(F)cc32)CC1` (stereo not given) yielded a melting point of 168 to 174 °C. Compound `CC1CCC(C(C)C)C(OC(=O)C(=O)Nc2nc(-c3ccccc3)cs2)C1` (stereo not given) has a melting point of 98 to 100 °C. For `O=C(ON1CCC(c2nsc3ccccc23)CC1)c1ccccc1`, the melting point was 84 to 85 °C. Compound `NC(=O)[C@H](CO)Nc1nc(SCc2cccc(F)c2F)nc2nc(N)sc12` has a melting point of 145 to 151 °C. Compound `O=C(O)c1cc(S(=O)(=O)NCCc2ccc(Cl)cc2)ccc1Cl` has a melting point of 176 to 178 °C. In the case of `CS(=O)(=O)N(Cl)C(=O)c1cc(Oc2ccc(Cl)cc2Cl)ccc1[N+](=O)[O-]`, the melting point is reported as 161 to 163 °C. `CCCC1CCC(c2ccc(-c3cc(F)c(F)c(F)c3C=O)cc2)CC1` (stereo not given) gave a melting point of 62 °C. Compound `Nn1cc(C(=O)NCc2ccc(Cl)cc2)c(=O)c2cc(CCCO)ccc21` has a melting point of 187 to 188 °C. Work on `COc1ccc2c(c1)C(=O)c1ccc(C(=O)O)cc1S2(=O)=O` yielded a melting point of 324 to 327 °C. With `O=C1[C@H]2CCC[C@H]2Nc2ccccc2N1Cc1cccc([N+](=O)[O-])c1` (relative stereo) the melting point was 169 to 171 °C. Work on `CC(=NO)c1ccnc(N)c1` yielded a melting point of 215 to 217 °C. For `Cc1c(C(=O)N[C@H](C)[C@](O)(Cn2cncn2)c2ccc(F)cc2F)cnn1-c1ccc(OC(F)(F)F)cc1`, the melting point was 134 to 135 °C. In the case of `CCOC(=O)c1cnc2c(c1O)CC(CC)CC2` (stereo not given), the melting point is reported as 218 to 220 °C. `CCCNC(=S)NCCC1Cc2ccc(-c3ccc(=O)[nH]n3)cc2C1` (stereo not given) gave a melting point of 155 to 157 °C. For `C=CCOCc1nc(C(C)(C)C)nn1-c1c(Cl)cc(Cl)cc1Cl`, the melting point was 34 to 37 °C. `CCOCc1cc(OC)c(-c2ccc(C[C@H](NC(=O)c3c(F)cccc3Cl)C(=O)O)cc2)c(OC)c1` gave a melting point of 182 to 184 °C. For `COc1ccc(C=O)cc1OCc1nc(-c2ccco2)oc1C`, the melting point was 125 to 126 °C. Compound `Cn1c2c(c3cccc(F)c31)C(=O)CCC2` has a melting point of 126 to 128 °C.
